Source: patent US12077503B2, “Substituted cyclic amides and their use as herbicides” (FMC CORPORATION, priority 2015, dated 2024)

Experiments:
Format in all cases: in vivo
[1] = test system: chickweed (common chickweed, Stellaria media); assay: Test C postemergence; conditions: scale 0 to 100, 0 no effect, 100 complete control
Procedure, shortened: (§1)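 Herbicidal effect, applied preemergence to sown seeds or postemergence to 1- to 4-leaf plants, was scored visually 13 to 15 d after application, 0 to 100 versus controls.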

[2] = test system: foxtail, giant (giant foxtail, Setaria faberii); assay: Test C postemergence; conditions: scale 0 to 100, 0 no effect, 100 complete control
Procedure, shortened: as §1

[3] = test system: oilseed rape (Brassica napus); assay: Test C postemergence; conditions: scale 0 to 100, 0 no effect, 100 complete control
Procedure, shortened: as §1

soybean (Glycine max) = assay: Test C postemergence; conditions: scale 0 to 100, 0 no effect, 100 complete control
Procedure, shortened: as §1

[4] = test system: wheat (winter wheat, Triticum aestivum); assay: Test C postemergence; conditions: scale 0 to 100, 0 no effect, 100 complete control
Procedure, shortened: as §1

[5] = test system: barnyardgrass (Echinochloa crus-galli); assay: Test C flooded paddy test; conditions: Flood; for Plant response rating (scale of 0 to 100), Barnyardgrass: 0 is no effect, 100 is complete control
Procedure, shortened: (§2)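 Rice, small-flower umbrella sedge, ducksalad and barnyardgrass at the 2-leaf stage were flooded to 3 cm, and compound was applied into the paddy water. After 13 to 15 d in a greenhouse, plants were rated visually against controls on a 0 (no effect) to 100 (complete control) scale.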

[6] = test system: ducksalad (Heteranthera limosa); assay: Test C flooded paddy test; conditions: Flood; for Plant response rating (scale of 0 to 100), Ducksalad: 0 is no effect, 100 is complete control
Procedure, shortened: as §2

rice (Oryza sativa) = assay: Test C flooded paddy test; conditions: Flood; for Plant response rating (scale of 0 to 100), Rice: 0 is no effect, 100 is complete control
Procedure, shortened: as §2

[7] = test system: sedge, umbrella (small-flower umbrella sedge, Cyperus difformis); assay: Test C flooded paddy test; conditions: Flood; for Plant response rating (scale of 0 to 100), Sedge, Umbrella: 0 is no effect, 100 is complete control
Procedure, shortened: as §2

[8] = test system: redstem (purple redstem, Ammannia coccinea); assay: Test F flooded paddy test; conditions: Flood
From the text: (§3) Plant species in the flooded paddy test consisted of one stand of 9 or 10 water seeded rice seedlings (Rice, W. S. Jap, Oryza sativa cv. ‘Japonica—M202’ or Rice, W. S. Ind, ‘Indica’), and two stands of 3 or 4 transplanted rice seedlings (Oryza sativa cv. ‘Japonica—M202’), Monochoria (Monochoria vaginalis), sedge, umbrella (small-flower umbrella sedge, Cyperus difformis), hardstem bulrush (Scirpus juncoides), redstem (purple redstem, Ammannia coccinea), rice flatsedge (Cyperus iria), bearded sprangletop (Leptochloa fascicularis), barnyardgrass (Echinochloa crus-galli), waterplantain (common waterplantain, Alisma plantago-aquatica), and late watergrass (Echinochloa oryzicola) grown to the 2 to 2.5 leaf stage for testing. Potted plants were grown in a greenhouse with day/night temperature settings of 30/27° C., and supplemental balanced lighting was provided to maintain a 16-hour photoperiod. At time of treatment, test pots were flooded to 3 cm above the soil surface, treated by application of test compounds directly to the paddy water, and then maintained at that water depth for the duration of the test. Effects of treatments on rice and weeds were visually evaluated by comparison to untreated controls after 21 d. Plant response ratings, summarized in Table F, are based on a scale of 0 to 100 where 0 is no effect and 100 is complete control. A dash (-) response means no test result.

[9] = test system: waterplantain (common waterplantain, Alisma plantago-aquatica); assay: Test F flooded paddy test; conditions: Flood
From the text: as §3

[10] = 31 g ai/ha, scale 0 to 100 (0 no effect, 100 complete control), 13 to 15 d

Structure (SMILES): CN1C[C@H](c2ccc(F)c(F)c2)[C@@H](C(=O)Nc2cccc(F)c2F)C1=O [Compound 639, (3S,4S)—N-(2,3-difluorophenyl)-4-(3,4-difluorophenyl)-1-methyl-2-oxo-3-pyrrolidinecarboxamide]
- Plant response rating, Chickweed ([1]; 31 g ai/ha): 40
- Plant response rating, Chickweed ([1]; 62 g ai/ha): 40
- Plant response rating, Chickweed ([1]; 125 g ai/ha): 50
- Plant response rating, Chickweed ([1]; 250 g ai/ha): 90
- Plant response rating, Foxtail, Giant ([2]; 31 g ai/ha): 35
- Plant response rating, Foxtail, Giant ([2]; 62 g ai/ha): 60
- Plant response rating, Foxtail, Giant ([2]; 125 g ai/ha): 80
- Plant response rating, Foxtail, Giant ([2]; 250 g ai/ha): 85
- Plant response rating, Oilseed Rape ([3]; 31 g ai/ha): 30
- Plant response rating, Oilseed Rape ([3]; 62 g ai/ha): 30
- Plant response rating, Oilseed Rape ([3]; 125 g ai/ha): 40
- Plant response rating, Oilseed Rape ([3]; 250 g ai/ha): 50
- Plant response rating, Soybean (soybean (Glycine max); 31 g ai/ha): 0
- Plant response rating, Soybean (soybean (Glycine max); 62 g ai/ha): 10
- Plant response rating, Soybean (soybean (Glycine max); 125 g ai/ha): 15
- Plant response rating, Soybean (soybean (Glycine max); 250 g ai/ha): 25
- Plant response rating, Wheat ([4]; 31 g ai/ha): 0
- Plant response rating, Wheat ([4]; 62 g ai/ha): 0
- Plant response rating, Wheat ([4]; 125 g ai/ha): 0
- Plant response rating, Wheat ([4]; 250 g ai/ha): 0
- Plant response rating, Barnyardgrass [5, 10]: 0
- Plant response rating (scale of 0 to 100), Barnyardgrass ([5]; 62 g ai/ha): 50
- Plant response rating (scale of 0 to 100), Barnyardgrass ([5]; 125 g ai/ha): 70
- Plant response rating (scale of 0 to 100), Barnyardgrass ([5]; 250 g ai/ha): 75
- Plant response rating, Ducksalad [6, 10]: 50
- Plant response rating (scale of 0 to 100), Ducksalad ([6]; 62 g ai/ha): 75
- Plant response rating (scale of 0 to 100), Ducksalad ([6]; 125 g ai/ha): 90
- Plant response rating (scale of 0 to 100), Ducksalad ([6]; 250 g ai/ha): 100
- Plant response rating, Rice (rice (Oryza sativa); [10]): 0
- Plant response rating (scale of 0 to 100), Rice (rice (Oryza sativa); 62 g ai/ha): 0
- Plant response rating (scale of 0 to 100), Rice (rice (Oryza sativa); 125 g ai/ha): 20
- Plant response rating (scale of 0 to 100), Rice (rice (Oryza sativa); 250 g ai/ha): 20
- Plant response rating, Sedge, Umbrella [7, 10]: 0
- Plant response rating (scale of 0 to 100), Sedge, Umbrella ([7]; 62 g ai/ha): 0
- Plant response rating (scale of 0 to 100), Sedge, Umbrella ([7]; 125 g ai/ha): 0
- Plant response rating (scale of 0 to 100), Sedge, Umbrella ([7]; 250 g ai/ha): 0
- Plant response rating: Redstem ([8]; 32 g ai/ha): 0
- Plant response rating: Redstem ([8]; 64 g ai/ha): 0
- Plant response rating: Redstem ([8]; 125 g ai/ha): 0
- Plant response rating: Redstem ([8]; 250 g ai/ha): 30
- Plant response rating: Waterplantain ([9]; 32 g ai/ha): 80
- Plant response rating: Waterplantain ([9]; 64 g ai/ha): 80
- Plant response rating: Waterplantain ([9]; 125 g ai/ha): 98
- Plant response rating: Waterplantain ([9]; 250 g ai/ha): 100
